Results reported in US20230293599A1, “BACTERIAL COMPOSITIONS WITH ANTI-INFLAMMATORY ACTIVITY” (Universiteit Gent, priority 2020, published 2023).

Test system: NF-κB pathway
Assay: NF-κB-luciferase reporter 3-D A549 cells stimulated with LPS (Example 2)
Format: cell-based, human
Settings: acetate at 28.3 mM and 18.0 mM, 4-hour incubation (FIG. 10)
Experimental: 3-D cells of the human adenocarcinoma alveolar lung epithelial cell line A549 transfected with an NF-κB-luciferase reporter (BPS Bioscience, San Diego, CA) were prepared as described previously for A549 cells (Crabbé et al., 2016; Barrila et al., 2010; Harris et al. 2007; Chen et a., 2019). Briefly, a monolayer of NF-κB-A549 cells was grown in T75 cell culture flasks containing GTSF-2 medium (HyClone, Logan, UT) supplemented with 1.5 g/L sodium bicarbonate (Sigma-Aldrich), 10% fetal bovine serum (FBS, Life technologies), 2.5 mg/L insulin transferring sodium selenite (Lonza) and 1% penicillin-streptomycin (pen-strep, Life Technologies) at 37° C. under 5% CO2. At confluence, the cells were seeded in the Rotating Wall Vessel (RWV) bioreactor with type-1 collagen coated dextran beads at a cell to bead ratio of 2:1 and were cultured for 11 to 14 days. […]
The NF-κB pathway was activated in 3-D NF-κB -A549 cells by 4 hours stimulation with LPS (100 μg/mL) in the presence or absence (positive control) of each of the isolates (Table 1) at varying multiplicity of infection (MOI) starting from an MOI of 100 to an MOI of 1.56 by performing 1:2 serial dilutions. […] After 4 hours incubation, 3-D epithelial cells containing the NF-κB -luciferase reporter were transferred to a black 96-well plate for analysis of luminescence. […] Luminescence was measured by an EnVision (Perkin Elmer) luminometer.

For `CC(=O)O` [acetate], the “effect on LPS-stimulated NF-κB pathway activation” value was “did not reduce”.
